In US20140088056A1, “CARDIAC GLYCOSIDES ARE POTENT INHIBITORS OF INTERFERON-BETA GENE EXPRESSION” (priority 2010, published 2014):

Columns and labels:
IFNβ promoter = assay: cells; format: cell-based, human
Method: 293T cells were transfected with the IFNβ promoter driving a firefly luciferase reporter together a reference renilla luciferase reporter plasmid. […] Firefly luciferase activities were measured after another 24 hrs and normalized to that of renilla activities.
293T cells were transfected with an IFNβ promoter driving luciferase reporter, 24 hrs later, increasing amounts (10 nM to 10 uM) of Ouabain (FIG. 8A) or digoxin (FIG. 8B) were added to cells before the Sendai virus infection. Luciferase activities were measured one day later.
Approximately 40,000 293T cells were seeded in a 96 well plate, and co-transfected with IFNβ-110 firefly luciferase reporter and renilla luciferase plasmids (Fitzgerald, K. A. et al. IKKepsilon and TBK1 are essential components of the IRF3 signaling pathway. Nat Immunol 4, 491-6 (2003)). After 24 hrs, cells were treated with various chemicals at the indicated concentrations, and sendai virus infection was initiated one hour later. After another 24 hrs, cells were lysed and subjected to Dual-Glo luciferase assay analysis (Promega) with an Analyst AD plate reader.
Human 293T cells were transfected with the IFNβ promoter driving the expression of luciferase construct. The cells were treated with a library of chemical compounds, and sendai virus (SeV) infection initiated one hour later. Luciferase activity was measured after another 24 hrs of culture. Signals were normalized to the samples not treated with chemicals.

[1] = tested on: PRDII element of the IFNβ promoter; format: cell-based, human; settings: 1 uM, compared with no drug treatment
Method: 293T cells were transfected with the IFNβ promoter driving a firefly luciferase reporter together a reference renilla luciferase reporter plasmid. […] Firefly luciferase activities were measured after another 24 hrs and normalized to that of renilla activities. […] Experiments were conducted same as in A, but PRDIV, PRDIII/I and PRDII driving luciferase reporter plasmids were used instead.

MEFs = assay: RT-PCR of IFNβ induction in mouse embryonic fibroblasts (MEFs); format: cell-based; settings: 1 uM; SeV, dsRNA, dsDNA
Excerpt: As discussed above, the mouse ATP1a1 protein is not sensitive to cardiac glycoside binding.

[2] = tested on: PRDII element (NFkB binding site); format: cell-based, human; settings: bufalin and TNF 24 hrs
IFN signaling = assay: IFN induced gene expression in Hela cells; format: cell-based, human; settings: 1 μM
Excerpt: Total RNA or protein were harvested for the expression analysis of specific genes by RT-PCR or Western blot.
Specifically, the inventors tested interferon (IFN), tumor necrosis factor (TNF), epidermal growth factor (EGF) signaling, and treatment with lipopolysacchoride (LPS).

293T cells = assay: CellTiter-Blue and CellTiter-Glo viability assays; format: cell-based, human; settings: 1 nM to 10 μM, 8 hours
Method: The cells were also exposed to 0.1% Triton X-100 for 1 hr before the viability assay as a control (FIG. 16E). Data represent mean values±s.d. (n=3). […] Cells were harvested and washed, then stained with Allophycocyanin (APC) conjugated Annexin V and 7-AAD for 15 minutes and subjected to flow cytometry analysis. The number in each graph is the percentile of Annexin V or 7-AAD positive populations. […] Total protein lysates were prepared and separated on SDS-PAGE for Western blot analysis of PARP1, cleaved PARP1, cleaved Caspase3, LC3B, ATP1a1, and beta-actin expression.
8 hours later, 20 μl of the CellTiter-Blue reagent (Promega) was added to each well and incubated for two more hours at 37° C. Fluorescence was recorded from 560 nm excitation/590 nm emission with a Spectramax Plus 384 plate reader. For CellTiter-Glo Luminescent viability assay, […] reagent (Promega) was added to each well and mixed, and incubated for 10 minutes at room temperature. Luminescence was measured with an Analyst AD plate reader.

[3] = tested on: cytoplasmic RNA polymerase III; assay: Re-transfection of RNA from dsDNA transfected, bufalin treated 293T cells; format: cell-based, human
Method: Total RNA from these cells were extracted and re-transfected into fresh 293T cells (8 ug for 2 million cells) for 6 hrs, the induction of IFNβ and Cxcl10 genes from these samples were analyzed by RT-PCR.
Furthermore, RIG-I can also be the target in the dsDNA activation pathway. […] This was achieved through a critical sensor: RNA polymerase III, which transcribes 5′-ppp bearing “panhandle” RNA from the dsDNA template, these nascent RNAs then activated the IFNb expression through the RIG-1-MAVS pathway. See, for example, Ablasser, A. et al. RIG-I-dependent sensing of poly(dA:dT) through the induction of an RNA polymerase III-transcribed RNA intermediate. Nat Immunol 10, 1065-72 (2009) and Chiu, Y. H., Macmillan, J. B. & Chen, Z. J. RNA polymerase III detects cytosolic DNA and induces type I interferons through the RIG-I pathway. Cell 138, 576-91 (2009), content of both of which is herein incorporated by reference.

virus = assay: Virus replication; format: cell-based

## C[C@]12CC[C@H](O)C[C@H]1CC[C@@H]1[C@H]2CC[C@]2(C)[C@@H](c3ccc(=O)oc3)CC[C@]12O [Bufalin]
IFNβ promoter; 1 uM
  inhibition of IFNβ expression: more than 90%
IFNβ promoter; 10 μM, chemical library screen
  Inhibition % @ 10 μM of virus induced IFNβ expression: 99.2%
IFNβ promoter; 1 and 10 uM, no virus
  IFN expression in the absence of virus infection: weakly induced
IFNβ promoter; Homo sapiens, HEK-293T, read-out: IC50 for inhibition of virus induced IFNβ expression
  IC50: 4.3 nM
[1]
  repression of viral induction of luciferase expression, PRDII reporter: > 86%
MEFs
  induction of IFNβ gene by various inducers in MEFs: little effects
[2]
  decrease of TNF induced luciferase gene expression: 40%
IFN signaling
  IFN induction of Stat1 and ISG15 genes: no effect
IFN signaling; IFN 1000 U/ml, 6 hours
  IFN induced expression of Cxcl10 and RIG-I genes: weakly inhibited
293T cells
  cell viability: did not severely impair
[3]
  activity of cytoplasmic RNA polymerase III: inhibited
virus
  virus replication: inhibited
